Common to all, as to format: in vivo
The subject of experiment [1] is IL-6. Put plainly: Reduction of LPS-induced interleukin-6 levels in mice. The note with it: 300 μg/mouse; LPS treated mice; vs untreated control mice. The protocol: Balb/c mice were grouped and treated as described in Example III, above. Blood samples were obtained from the orbital sinus at various times up to six hr and serum was collected and diluted as described above. A 100 μl aliquot was assayed for IL-6 levels using an IL-6-specific ELISA by a modification of the method of Starnes et al., J. Immunol. 145:4185-4194 (1990), which is incorporated herein by reference.
The mean (±SEM) IL-6 level in six mice from each group was determined and the percent reduction in IL-6 was calculated.

Experiment [2] deals with Male Harlan Sprague-Dawley rats. Put plainly: Adult respiratory distress syndrome: LPS-induced PMN count in broncho-alveolar lavage fluid. Conditions: 100 μg/kg IP at 0, 2 and 4 hr; intratracheal LPS 5 mg/kg; lavage at 6 hr. The protocol: These experiments were performed using a modification of the methods described by Ulich et al., Am. J. Pathol. 141:61-68 (1992) and by Wheelden et al., Lab. Animals 26:29-37 (1992), each of which is incorporated herein by reference. Male Harlan Sprague-Dawley rats were anesthetized using a mixture of 70 mg/kg ketamine and 6 mg/kg rompun injected IP. A 2-3 cm incision was made in the neck of each anesthetized rat and its trachea was exposed by blunt dissection of the surrounding soft tissue. The rats were suspended on a near vertical slab and intratracheal injections were performed by inserting into the exposed trachea, at a point 1 cm posterior to the larynx, a 25G×1/2 inch needle attached to a 1 cc syringe.
Each rat received 0.5 ml/kg of saline or 0.5 ml/kg of 10 mg/ml (5 mg/kg) LPS endotoxin via slow intratracheal administration. Immediately following administration of the LPS endotoxin, rats were injected IP with 1 ml/kg of either saline (control) or saline containing various concentrations of EX-2 (treated). The rats were maintained in the elevated position for 1-2 min to facilitate distribution of the LPS and saline into the lung. The incisions were closed and the rats were allowed to recover. […]
The total polymorphonuclear leukocytes (PMN; neutrophils) in the broncho-alveolar lavage fluid were counted in the EX-2-treated rats and compared with the number in the control rats.

In experiment [3] the test system is Male Shelton rabbits. As to the kind of experiment: Morphine-induced respiratory depression. The note with it: 10 + 20 + 20 μg/kg/rabbit iv; at end of experiment (80 min). The protocol:
Male Shelton rabbits (3-4 kg) were restrained and fitted around the thorax, just behind the front limbs, with a respiration transducer (Model F-RCT; Grass Instruments; Quincy Mass.). The transducer was connected to a grass polygraph via an EKG cable. An intravenous line was established for drug administration by cannulating the marginal ear vein using a 25G butterfly needle.
Rabbit breathing was allowed to stabilize, then. morphine sulfate (2 mg/kg in 0.5 ml saline) was administered by intravenous (iv) injection and respiratory rate and depth were monitored for 10 min. A second dose of morphine was administered, then, after 10 min, EX-2 or EX-3 (10 μg/kg in 0.5 ml saline) was administered, iv, and rabbits were monitored for 20 min. Two additional doses of EX-2 or EX-3 (20 μg/kg in 1.0 ml saline) were administered at 20 min intervals, i.e., 40 min and 60 min after the first morphine injection.
Results were calculated as the percent change from baseline values and are expressed as the difference of the mean value of the treated group minus the mean value of the control group at the end of the experiment (80 min).

In experiment [4] the test system is Adult male Sprague-Dawley rats. Put plainly: Disuse deconditioning (tail suspension) in rats. Conditions: 1 or 5 μg/kg IP twice daily. The protocol:
Adult male Sprague-Dawley rats (355-365 g) were used in this study. Animals were housed individually in standard rat cages and were acclimated on a treadmill for 4 days. The next day, a baseline tail bleed was performed, followed by a maximal treadmill stress test the day after. The day following the stress test, the animals were divided into the appropriate treatment and control groups and the animals were suspended by their tails in suspension cages, which simulates weightlessness and, therefore, deconditions the animals. Another group of control animals was placed in standard rat cages with grated flooring similar to that utilized in the suspension cages. All animals were housed one per cage and supplied with food and water ad libitum. Body weights and food consumptions were measured daily Animals received twice daily IP injections of 1 μg/kg or 5 μg/kg body weight of EX-2 (treated), or 1 ml/kg body weight of saline (control). On day 10, all animals were stress tested on the treadmill until they reached exhaustion. Data on maximum VO2 and running time were collected and compared to pre-suspension results. On day 14, all animals were sacrificed, and blood, tissues, and organs were collected for further analysis. All procedures and tests were performed blind to avoid researcher subjectivity. Statistical significance (p<0.05) between groups was evaluated by ANOVA with Student-Newman-Keuls test for multiple comparisons. All data are reported as the mean±standard error (SE).
All of the animals were subjected to the stress tests, which measured exercise time and maximal VO2. As well, levels of the oxidative enzyme soleus citrate synthase and tibia bone density were measured.
Soleus citrate synthase was attenuated by 50%.

For experiment [5], the system named is male Sprague-Dawley rats. As to the kind of experiment: Glomerulonephritis (nephrotoxic serum), albuminuria. The note with it: EX-2 100 μg/kg per injection, 3 times per day; nephrotoxic serum iv. The protocol: Male Sprague-Dawley rats (weight 194-248 g) were immunized by subcutaneous injection of 1 mg normal rabbit IgG (Sigma Chemical Co.) in Freund's complete adjuvant (Sigma Chemical Co.). EX-2 was administered 3 times per day (100 μg/kg per injection) throughout the duration of the experiment. Seven days later, the rats were injected with 1.5 ml of nephrotoxic serum iv via dorsal penile vein. Urine, plasma, and serum were collected before injection of nephrotoxic serum at 4, 6, 24, 48, and 96 hr thereafter. […] Albuminuria was quantified by immunoelectrophoresis.

With “Ac-Nle-Gln-His-(D)Phe-Arg-(D)Trp-Gly-NH2 [EX-2]”, the “Reduction in IL-6 levels” value in experiment [1] stood at 60%. For the same substance, the “Reduction in LPS-induced PMN Count” value in experiment [2] was found to be 58%. Also, in experiment [3], the “Reduction in Morphine-induced Respiratory Depression” value is listed as 50%. Also, in experiment [4] (14 days suspension), the “Soleus Citrate Synthase, % Attenuation of suspension-induced decrease” value worked out at 50% and the “Tibia Bone Density, % Attenuation of suspension-induced decrease” value came to 50%. Also, in experiment [4] (treadmill stress test day 10), the “Exercise Time, % Attenuation of suspension-induced decrease” value was found to be 44% and the “Maximal VO2, % Attenuation of suspension-induced decrease” value is 80%. In experiment [5], the “Glomerulonephritis: Albumin (mg/day), % Reduction of induced increase” value came out at 62%.
